According to US10517870B2, “Aryl substituted bicycle heteroaryl compounds” (Bristol-Myers Squibb Company, priority 2015, dated 2019):
Read-outs that look alike come from different tables or passages of the source.

How the values were obtained:
[1] = system: Caski (HPV16+) cells; assay: Cell proliferation/viability assay, Caski cells; format: cell-based; conditions: Homo sapiens, Ca-Ski, 96 h, 4 days
Protocol: (§1) Caski (catalog number CRL-1550), SiHa (catalog number HTB-35), C33A (catalog number HTB-31), Saos-2 (ATCC HTB-85), and Hela (catalog number CCL-2) cells were obtained from the American Type Culture Collection (ATCC). The human cervical carcinoma cell lines Caski. SiHa, Hela and C33A, and the human osteosarcoma cell line Saos-2, and the human keratinocyte cell line HaCaT were cultured in Dulbecco's Modified Eagle Medium (DMEM, Invitrogen catalog number 11965-092) supplemented with 10% fetal bovine serum. The colorectal carcinoma cell line HCT-116 was cultured in Roswell Park Memorial Institute-1640 Medium (Invitrogen catalog number 11875-093) supplemented with 10% FBS. All cells were incubated at 37° C. in a humidified atmosphere with 5% CO2 in air. To establish the SCHPV-18 cell line, one million primary neonatal human foreskin keratinocytes (Invitrogen, catalog no. C-001-5C), cultured in KBM Gold-keratinocvte cell basal medium (Lonza, catalog no. 192060), were electroporated with 5 μg HPV-18 plasmid DNA (ATCC catalog no. 45152D) using the Amaxa Nucleofector II on setting T-007. Cells were co-transfected with 2 μg plasmid pZSGreen1-N1 (Clontech catalog no. 632448) encoding G418 resistance, and cells were selected for four days in 100 μg/ml G418, after which selection was removed. Cells were maintained in culture six months prior to compound testing. Integration of the HPV 18 genome was confirmed by Southern blot. Control cells transfected in parallel with pZSGreen1-N1 alone became senescent four days after selection and the culture could not be expanded. SCHPV-18 cells were maintained in E medium (Fehrmann F, Laimins L A. Human papillomavirus type 31 life cycle: methods for study using tissue culture models. Methods Mol Biol 2005; 292:317-330).
(§2) For proliferation assays, cells were plated in white polystyrene 96-well plates (Costar catalog number 3917) for CellTiter Glo viability assays or 96-well special optics plates (Costar cat #3614) for CellTiter Blue viability assays. Cells were plated in the appropriate growth medium without antibiotics. Two hours after cell plating, a 200× compound stock diluted in DMSO was added to a final concentration of 0.5%. Plates were incubated at 37° C., for 4 days and then cell viability was assessed using either CellTiter Blue (Promega catalog number G8081) or CellTiter Glo (Promega catalog number G7572) according to the manufacturer's instructions. For the CellTiter Blue viability assay, data was collected using the SpectraMax Gemini EM (Molecular Devices) with an excitation wavelength of 530 nm and emission wavelength of 590 nm. For the CellTiter Glo viability assay, data was collected using the Envision Mulitlabel Reader (Perkin Elmer catalog number 2104-0010). To calculate IC50 and EC50 values, percent inhibition curves were fit using a four-parameter logistic formula [y=A+[…]], where A and B denote minimal and maximal % inhibition, respectively, C is the IC50 value, D is the Hill slope, and x represents compound concentration.
(§3) Table C, below, sets out the results obtained employing various compounds of the invention tested for their effects on proliferation of such cells. Caski or SiHa cells, transformed by HPV 16, Hela cells, transformed by HPV 18, or HPV-negative control cell lines (Saos-2 or C33a) were treated with various compounds. […] Unlike the HPV-negative Saos-2 or C33a cell lines, the HPV-transformed cell lines rely on the presence of HPV for their continued proliferation. Therefore, a comparison of IC50 values from HPV-transformed cell lines with IC50 values obtained from HPV-negative cell lines can be used to test for compound selectivity.

[2] = system: HeLa (HPV18+) cells; assay: Cell proliferation/viability assay, HeLa cells; format: cell-based; conditions: Homo sapiens, 96 h, 4 days
Protocol: as §1, §2, §3

[3] = system: SiHa (HPV16+) cells; assay: Cell proliferation/viability assay, SiHa cells; format: cell-based; conditions: Homo sapiens, 96 h, 4 days
Protocol: as §1, §2, §3

[4] = system: Saos-2 (HPV−) cells; assay: Cell proliferation/viability assay, Saos-2 cells; format: cell-based; conditions: Homo sapiens
Protocol: as §1, §2, §3

[5] = system: C33A (HPV−) cells; assay: Cell proliferation/viability assay, C33A cells; format: cell-based; conditions: Homo sapiens, C-33-A, 96 h
Protocol: as §1, §2, §3

[6] = system: Caspase-3/-7 activity; assay: Apoptosis assay (Caspase-Glo 3/7) in HPV-transformed and HPV-negative cell lines; format: cell-based, human
Protocol: Apoptosis is a cellular process in which a cascade of events, controlled by proteolytic cleavage events, results in chromatin condensation, blebbing of the cell membrane, fragmentation of cellular DNA, and cell death. Caspases 3 and 7 are enzymes which control initiation of the later stages of apoptosis. Caspase-3/-7 activity can therefore be used as a measure of induction of apoptosis in response to compound treatment. For caspase-3/7 activity assays, cells were plated in 96-well plates (Costar catalog no. 3917) in DMEM with 10% FBS two hours before compound treatment. Cells were treated with compounds in a final concentration of 0.5% DMSO, then the Caspase-Glo 3/7 Assay (Promega catalog no. G8090) was performed according to manufacturer's instructions. […] Luminescence was measured using the EnVision Multilabel Reader (Perkin Elmer catalog no. 2104-0010) with aperture diameter 6 mm, height 4.2 mm, and measurement time of 0.1 second per well.
Example 15 was tested in an apoptosis assay using three HPV-transformed cell lines (Caski, SiHa, and SCHPV-18) and four HPV-negative cell lines (HCT-116, HaCat, C33a, and Saos-2). The cell lines were treated with a range of concentrations of the compound and induction of Caspase-3/-7 activity was measured relative to vehicle (DMSO)-treated controls.

[7] = target: T1, PAR4 (Homo sapiens, UniProt Q96RI0); assay: PAR4 FLIPR assay (calcium mobilization, antagonist activity) in PAR4-expressing HEK293 cells; format: cell-based
T1 construct: expressed in transfected cells; host or cells: HEK293 PAR4 Clone 1.2A
T1 sequence (Q96RI0 18-385): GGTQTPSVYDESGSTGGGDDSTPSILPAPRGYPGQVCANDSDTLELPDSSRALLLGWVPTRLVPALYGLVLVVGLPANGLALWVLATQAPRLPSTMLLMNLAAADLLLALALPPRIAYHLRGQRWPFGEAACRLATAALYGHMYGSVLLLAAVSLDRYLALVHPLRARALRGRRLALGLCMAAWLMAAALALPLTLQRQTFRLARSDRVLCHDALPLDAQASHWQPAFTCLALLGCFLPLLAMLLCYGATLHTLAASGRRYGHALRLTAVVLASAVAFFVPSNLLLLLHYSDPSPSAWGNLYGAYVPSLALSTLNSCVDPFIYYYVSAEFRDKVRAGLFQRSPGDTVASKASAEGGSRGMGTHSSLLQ
Excerpt: The FLIPR assay is an exemplary in vitro assay for measuring the activity of the PAR4 antagonists of the present invention. In this assay, intracellular calcium mobilization is induced in PAR4 expressing cells by a PAR4 agonist and calcium mobilization is monitored.
HEK293 cells stably expressing PAR4 were generated by a standard method of transfection of human PAR4 (F2R23) cDNA expression vector and selected based on PAR4 protein expression or mRNA expression. […] These cells also express endogenous PAR1 and can elicit calcium signal upon stimulation with PAR1 agonist peptide. Therefore, the same cells were also used to determine selectivity against PAR1 and agonist activity for both receptors. Cells from HEK293 PAR4 Clone 1.2A (BMS Arctic ID 383940) were propagated and used for calcium mobilization studies.
FLIPR-based calcium mobilization assay in HEK293 cells was used to measure PAR4 antagonism, agonism, and selectivity against PAR1. The activity of the PAR4 antagonists of the present invention were tested in PAR4 expressing cells by monitoring H-Ala-Phe(4-F)-[…]NH2-induced intracellular calcium mobilization. Counter screens for agonist activity and PAR1 antagonist activity were also performed. Briefly, PAR1/PAR4-expressing HEK293 cells were grown in DMEM (Life Technology, Grand Island, N.Y.) containing 10% heat-inactivated FBS, 1% Penicillin-Streptomycin, 10 μg/mL blasticidin, and 100 μg/mL Zeocin at 37° C. with 5% CO2. Cells were plated overnight prior to the experiment in a black 384-well Purecoat Amine clear bottom plate (Becton Dickinson Biosciences, San Jose, Calif.) at 10,000 cells/well in 30 μL growth medium and incubated in a humidified chamber at 37° C. with 5% CO2 overnight. Prior to compound addition, the cell medium was replaced with 40 μL of IX calcium and magnesium-containing Hank's Balanced Saline Solution (HBSS) (with 20 mM HEPES) and 1:1000 diluted fluorescent calcium indicator (Codex Biosolutions, Gaithersburg, Md.). After a 30 minute incubation period at 37° C., and a further 30 minute incubation and equilibration period at room temperature, 20 μL test compound (diluted in 1×HBSS buffer) was added at various concentrations at 0.17% dimethyl sulfoxide (DMSO) final concentration. Changes in fluorescence intensity were measured using a Functional Drug Screening System (FDSS, Hamamatsu, Japan) to determine agonist activities. The cells were then incubated for 30 minutes at room temperature followed by addition of 20 μL of agonist peptide for antagonist activity measurement. […] Compound potency was derived from 11-point concentration-response curves.

[8] = SAOS-2, 96 h, read-out: Saos-2 (HPV−) Proliferation IC50 (μM)
[9] = read-out: C33A (HPV−) Proliferation IC50 (μM)

| SMILES | IC50 [1] | IC50 [2] | IC50 [3] | IC50 ([4]; 96 h, Saos-2, HPV-negative, 4 days, read-out: Saos-2 (HPV−) Proliferation IC50) | IC50 ([5]; C33A, HPV-negative, 4 days, read-out: C33A (HPV−) Proliferation IC50) | increase in Caspase-3/-7 activity ([6]; HPV-positive cell lines (Caski, SiHa, SCHPV-18), relative to vehicle (DMSO)-treated controls) | induction of apoptosis ([6]; HPV-positive versus HPV-negative cell lines (HCT-116, HaCat, C33a, Saos-2)) | IC50 [7] | IC50 [4, 8] | IC50 [5, 9] |
| --- | --- | --- | --- | --- | --- | --- | --- | --- | --- | --- |
| COc1ccc(-c2cc(C(F)(F)F)cc3nc(OC(F)F)cnc23)cc1Br [Example 15, 5-(3-bromo-4-methoxyphenyl)-2-(difluoromethoxy)-7-(trifluoromethyl)quinoxaline] | 16.5 µM | 18.2 µM | 12.9 µM | > 99.5 µM | > 99.5 µM | greater than 10 fold | selectively induced apoptosis in HPV-positive cell lines |  |  |  |
| Cc1cc(-c2ccc(Cl)cc2Cl)c2ncc(OC(F)F)nc2c1 [Example 23, 5-(2,4-dichlorophenyl)-2-(difluoromethoxy)-7-methylquinoxaline] | 12.9 µM | 10.9 µM | 9.3 µM |  |  |  |  | 0.012 µM | > 100 µM | 79.7 µM |
| Cc1cc(-c2cccc(OC(F)(F)F)c2)c2ncc(OC(F)F)nc2c1 [Example 26, 2-(difluoromethoxy)-7-methyl-5-(3-(trifluoromethoxy)phenyl) quinoxaline] | 6 µM | 4.6 µM | 3.8 µM |  |  |  |  | 0.4 µM | > 100 µM | > 100 µM |
| Cc1cc(-c2ccc(C(F)(F)F)cc2)c2ncc(OC(F)F)nc2c1 [Example 19] | 14.6 µM | 29.9 µM | 20.5 µM |  |  |  |  | 0.8 µM | > 100 µM | > 100 µM |
| C#Cc1cc(-c2ccc(OC)cc2)c2ncc(OC(F)F)nc2c1 [Example 5, 2-(difluoromethoxy)-7-ethynyl-5-(4-methoxyphenyl)quinoxaline] | 3.4 µM | 3.3 µM | 4.5 µM |  |  |  |  | 0.25 µM | 53.1 µM | 42.3 µM |
| Cc1cc(-c2cccc(Cl)c2)c2ncc(OC(F)F)nc2c1 [Example 18, 5-(3-chlorophenyl)-2-(difluoromethoxy)-7-methylquinoxaline] | 13.9 µM | 13.2 µM | 11.6 µM |  |  |  |  | 1.4 µM | > 100 µM | > 100 µM |
| COc1ccc(-c2cc(C(F)(F)F)cc3nc(OC(F)F)cnc23)cc1 [Example 8, 2-(difluoromethoxy)-5-(4-methoxyphenyl)-7-(trifluoromethyl)quinoxaline] | 2.5 µM | 2.3 µM | 4.3 µM |  |  |  |  | 1.5 µM | 58.3 µM | > 99.5 µM |
| COc1cc(F)cc(-c2cc(C)cc3nc(OC(F)F)cnc23)c1 [Example 21, 2-(difluoromethoxy)-5-(3-fluoro-5-methoxyphenyl)-7-methylquinoxaline] | 13.3 µM | 14.7 µM | 11.7 µM |  |  |  |  | 2.2 µM | > 100 µM | > 100 µM |
| Cc1cc(-c2ccc(OC(F)(F)F)cc2)c2ncc(OC(F)F)nc2c1 [Example 20, 2-(difluoromethoxy)-7-methyl-5-(4-(trifluoromethoxy)phenyl)quinoxaline] | 16.4 µM | 45.1 µM | 22.1 µM |  |  |  |  | 1.2 µM | > 100 µM | 83.5 µM |
| COc1ccc(-c2cc(C#N)cc3nc(OC(F)F)cnc23)cc1 [Example 1, 3-(difluoromethoxy)-8-(4-methoxyphenyl)quinoxaline-6-carbonitrile] | 2.3 µM | 1.5 µM | 1.7 µM |  |  |  |  | 1.9 µM | 7.7 µM | 6.9 µM |
| COc1ccc(-c2cc(Cl)cc3nc(OC(F)F)cnc23)cc1 [Example 2, 7-Chloro-2-(difluoromethoxy)-5-(4-methoxyphenyl)quinoxaline] | 10 µM | 9.3 µM | 8 µM |  |  |  |  | 2.1 µM | > 100 µM | 54 µM |
